Data as given in publication PMC9694711, “Synthesis of Paclitaxel Derivatives for Remote Loading into Liposomes and Improved Therapeutic Effect” (Molecules, 2022).

What was measured:
[1] = tested on: lung cancer cell line A549; experiment: MTT assay, cytotoxicity on A549; format: cell-based, human; conditions: for GI50: Homo sapiens, A549, MTT, 72 h, mean of two independent determinations; for TI (LO2/A549): therapeutic index, GI50 LO2 / GI50 A549
Procedure: (§1) MTT assay was applied to verify the rationality of the molecular combination strategy. The cytotoxicity of the compounds was evaluated on lung cancer cell line A549, colon cancer cell line HCT-116, breast cancer cell line 4T1 and normal hepatocyte cell line LO2. Paclitaxel was used as a positive drug. […] The therapeutic index (TI) for LO2/HCT-116, LO2/A549 and LO2/4T1 of active compounds 4a, 4d, 13a, 17a, 17c and paclitaxel are shown in Table 2.
(§2) Cells were inoculated in 96-well plates (cell density 2 × 10^4 cells/well) followed by incubation for 24 h at 37 °C. Paclitaxel and target compounds were added to the corresponding well. Subsequently, the cultures were incubated for 72 h. After the MTT solution (50 µL, 2 mg/mL) was added to cultures, the plates were incubated for an additional 4 h. Purple colored formazan crystals were dissolved in 200 µL DMSO, and the absorbance was recorded at 570 nm using Synergy HT, Bio-Tek (Winooski, VT, USA).

[2] = tested on: colon cancer cell line HCT-116; experiment: MTT assay, cytotoxicity on HCT-116; format: cell-based, human; conditions: for GI50: Homo sapiens, HCT-116, MTT, 72 h, mean of two independent determinations; for TI (LO2/HCT-116): therapeutic index, GI50 LO2 / GI50 HCT-116
Procedure: as §1, §2

[3] = tested on: breast cancer cell line 4T1; experiment: MTT assay, cytotoxicity on 4T1; format: cell-based, mouse; conditions: for GI50: Mus musculus, MTT, 72 h, mean of two independent determinations; for TI (LO2/4T1): therapeutic index, GI50 LO2 / GI50 4T1
Procedure: as §1, §2

[4] = tested on: normal hepatocyte cell line LO2; experiment: MTT assay, cytotoxicity on normal cell LO2; format: cell-based; conditions: Hepatocyte; MTT, 72 h; mean of two independent determinations
Procedure: as §1, §2

[5] = Liposome loading with calcium acetate gradients; format: physicochemical; conditions: sediment precipitated after loading
From the text: Since boronic acid RB(OH)2 is not only a weak acid, but also a structure that can complex with copper ions, ATP and saccharides, we investigated whether different inner phases could be employed to encapsulate compounds (4a, 4d, 13a, 17a, 17c) with good therapeutic index.

[6] = Liposome loading with copper ion gradients (encapsulation efficiency by HPLC); format: physicochemical; conditions: copper ion gradient
From the text: Vyxeos® is a liposomal formulation of a fixed molar ratio (1:5) combination of the antineoplastic drugs daunorubicin (DN) and cytarabine (Cyt). Daunorubicin is subsequently actively encapsulated with high efficiency through complexation with intra-liposomal copper. The copper gluconate buffer forms a complex with daunorubicin at a ratio of 1:1 to 1:2 [25]. Referring to Vyxeos®, copper ion was selected as a complexed metal ion in the inner phase. […] Therefore, compound 4d was selected to investigate the effect of the anions on the loading efficiency. Among them, only the neutral gluconate copper was a suitable inner phase to facilitate the encapsulation of compound 4d (Table 3).
(§3) The reason for the stability of the neutral formulations was potentially due to the fact that PBA was effectively […] and interacted with copper more tightly in the neutral condition compared with the acidic condition. Thus, the neutral Cu-gluconate was selected as the inner phase. The concentration of copper ions was also investigated, showing that the higher the copper concentration, the higher the EE. Considering the safety of copper ions, 300 mM was chosen. […] The EE of compound 4d active loading liposome was more than 95% with copper ion gradient. Furthermore, we also evaluated the ATP and saccharides as remote gradients with the optimal formulation of copper ion gradients.
(§4) Blank liposomes were prepared for membrane hydration. HSPC, chol and DSPE-PEG2000 were dissolved using chloroform at a mass ratio of 3:1:0.02 and then spin-evaporated at 37 °C. The obtained film was then hydrated with 300 mM Cu-Glu (pH 7.4) at 65 °C for 30 min. The multi-layer vesicles were subsequently put into an extruder and passed through polycarbonate membranes with pore sizes of 400 nm, 200 nm and 100 nm 12 times at 65 °C containing 20 mM HEPES, 15 mM EDTA and 300 mM sucrose for removing the un-encapsulated Cu^2+, and then EDTA was removed with 20 mM HEPES and 300 mM sucrose buffer (pH 7.4, adjusted with triethylamine). Compound 4d was dissolved in DMSO and slowly added into the liposome at 65 °C for 30 min and then quenched in an ice bath for 5 min (the drug to lipid ratio was 1:10). The encapsulation efficiency and drug loading efficiency of compound 4d were determined using HPLC. The morphologies of liposomes were characterized using a transition electron microscope (TEM, Hitachi HT7700, Tokyo, Japan); then, their size, PDI and Zeta potential were measured using a Zetasizer Nano ZS90 (Malvern, UK).

[7] = Liposome loading with ATP and saccharides gradients; format: physicochemical; conditions: gradient ATP
Procedure: as §3
Thus, the copper ion gradient was chosen for further experiments.
Blank liposomes were prepared for membrane hydration. HSPC, chol and DSPE-PEG2000 were dissolved using chloroform at a mass ratio of 3:1:0.02 and then spin-evaporated at 37 °C. The obtained film was then hydrated with 300 mM Cu-Glu (pH 7.4) at 65 °C for 30 min. […] The encapsulation efficiency and drug loading efficiency of compound 4d were determined using HPLC. The morphologies of liposomes were characterized using a transition electron microscope (TEM, Hitachi HT7700, Tokyo, Japan); then, their size, PDI and Zeta potential were measured using a Zetasizer Nano ZS90 (Malvern, UK).

[8] = Characterisation of compound 4d liposome (size, PDI, zeta potential, loading, storage stability); format: physicochemical; conditions: optimal formulation, drug to lipid ratio 1:10
Procedure: The morphology of compound 4d liposome is shown in Figure 3 and Figure 4, with spherical particles, a narrow size distribution at ~110 nm and zeta potential at ~−15 mV (Table S2).
as §4

4T1 xenograft tumor = experiment: In vivo antitumor efficacy and toxicity, 4T1 tumor model; conditions: 8 mg/kg, 4 times; mice bearing 4T1 tumor
Procedure: A549 and HCT-116 cells are human tumor cells, while 4T1 cells are mouse tumor cells. Based on the availability of the tumor model, mice bearing a 4T1 xenograft tumor were used to study the in vivo antitumor efficacy of the compound 4d liposome. As depicted in Figure 6a, there was difference between compound 4d (8 mg/kg) and the paclitaxel control group (8 mg/kg).
The antitumor effect was evaluated by the nude mice armpit tumor model bearing breast cancer 4T1 cells. When the average tumor volume reached 100 mm^3, the treatment was initiated at a 3-day interval for 12 days. The mice were randomly divided into five groups (n = 5 per group) receiving different palictaxel at 8 mg/kg as follows: saline (the control group), taxol, compound 4d, compound 4d liposome, high dose 4d liposome (3 times the dose, immediately 24 mg/kg). Tumor volume (V = length × width^2/2) and body weight were recorded. At the end of the experiment, mice were sacrificed. The obtained tumors were accurately weighed to calculate the tumor burden (Wtumor/Wbody) and tumor inhibition rate [TIR= (Wcontrol tumor − Wsample tumor)/Wcontrol tumor].

## CC(=O)OC1C(=O)C2(C)C(O)CC3OCC3(OC(C)=O)C2C(OC(=O)c2ccccc2)C2(O)CC(OC(=O)C(OC(=O)CSSCC(=O)OCc3ccc(B(O)O)cc3)C(NC(=O)c3ccccc3)c3ccccc3)C(C)=C1C2(C)C (stereo not shown) [Compound 4d, 2’-O-[2-((2-((4-boronobenzyl)oxy)-2-oxoethyl)disulfaneyl)acetyl]taxol]
[1]
  GI50: 13.9 nM
  TI (LO2/A549): 45.9
[2]
  GI50: 13 nM
  TI (LO2/HCT-116): 49.1
[3]
  GI50: 69.8 nM
  TI (LO2/4T1): 9.2
[4]
  GI50: 639 nM
[5]
  encapsulation into liposomes by calcium acetate gradients: not feasible
[6]; drug-to-lipid ratio of 0.1 w/w (1:10)
  Encapsulated efficiency, optimal formulation: > 95%
[7]
  loading with inner phase of ATP: not successful
[8]
  Loading efficiency (%): 9.02%

## CC(=O)OC1C(=O)C2(C)C(O)CC3OCC3(OC(C)=O)C2C(OC(=O)c2ccccc2)C2(O)CC(OC(=O)C(OC(=O)CCC(=O)OCc3ccc(B(O)O)cc3)C(NC(=O)c3ccccc3)c3ccccc3)C(C)=C1C2(C)C (stereo not shown) [Compound 4a, 2’-O-[4-((4-boronobenzyl)oxy)-4-oxobutyryl]taxol]
[1]
  GI50: 68.5 nM
  TI (LO2/A549): 27.4
[2]
  GI50: 73.7 nM
  TI (LO2/HCT-116): 25.4
[3]; @100 nM
  inhibition % at fixed concentration, 4T1 (printed in GI50 column): 20.85%@100 nM
[4]
  GI50: 1880 nM
[5]
  encapsulation into liposomes by calcium acetate gradients: not feasible
[6]
  loading into liposomes, copper ion as complexed metal ion in the inner phase: failed in loading into the liposomes

## CC(=O)O[C@H]1C(=O)[C@@]2(C)[C@H]([C@H](OC(=O)c3ccccc3)[C@]3(O)C[C@H](OC(=O)[C@H](O)[C@@H](NC(=O)c4ccccc4)c4ccccc4)C(C)=C1C3(C)C)[C@]1(OC(C)=O)CO[C@@H]1C[C@@H]2O [paclitaxel]
[1]; @6.25 nM
  inhibition % at fixed concentration, A549 (printed in GI50 column): 64.96%@6.25 nM
[2]; @6.25 nM
  inhibition % at fixed concentration, HCT-116 (printed in GI50 column): 81.86%@6.25 nM
[3]
  GI50: 25.3 nM
  TI (LO2/4T1): 2.7
[4]
  GI50: 69.1 nM
4T1 xenograft tumor
  tumor inhibition rate: 58.5%

## CC(=O)OC1C(=O)C2(C)C(O)CC3OCC3(OC(C)=O)C2C(OC(=O)c2ccccc2)C2(O)CC(OC(=O)C(OC(=O)CCB(O)O)C(NC(=O)c3ccccc3)c3ccccc3)C(C)=C1C2(C)C (stereo not shown) [Compound 17a, 2’-O-[3-boronopropanoyl]taxol]
[1]
  GI50: 21.8 nM
  TI (LO2/A549): 32.7
[2]
  GI50: 7.98 nM
  TI (LO2/HCT-116): 89.5
[3]
  GI50: 68.1 nM
  TI (LO2/4T1): 10.5
[4]
  GI50: 715 nM
[5]
  encapsulation into liposomes by calcium acetate gradients: not feasible
[6]
  loading into liposomes, copper ion as complexed metal ion in the inner phase: failed in loading into the liposomes
